Results on 11 compounds are retold here after patent publication US7598382B2, “Aryl substituted imidazoquinolines” (Coley Pharmaceutical Group, Inc., priority 2002, dated 2009).

Structures are written as SMILES.

Data set [1] relates to tumor necrosis factor-α (TNF-α) production in mouse macrophage cell line Raw 264.7. Briefly: TNF-α inhibition in mouse cells, single concentration assay (LPS-stimulated Raw 264.7). Type of data set: cell-based. The note with it: Raw 264.7 cells stimulated by LPS (EC70), compound 5 μM (single concentration) or 0.03-10 μM (dose response), 18 to 24 hours, ELISA. The method, then:
The compounds of Formulas I and II are useful as immune response modifiers (IRMs) due to their ability to modulate cytokine biosynthesis (e.g., induce or inhibit the biosynthesis or production of one or more cytokines) and otherwise modulate the immune response when administered to animals. Compounds can be tested per the test procedures described in the Examples Section. Compounds can be tested for induction of cytokine biosynthesis by incubating human PBMC in a culture with the compound(s) at a concentration range of 30 to 0.014 μM and analyzing for interferon (α) or tumor necrosis factor (α) in the culture supernatant. Compounds can be tested for inhibition of cytokine biosynthesis by incubating mouse macrophage cell line Raw 264.7 in a culture with the compound(s) at a single concentration of, for example, 5 μM and analyzing for tumor necrosis factor (α) in the culture supernatant. Compounds can be further tested for dose response by running the test at several compound concentrations, for example, 0.03, 0.1, 0.3, 1, 3, 5, and 10 μM. The ability to modulate cytokine biosynthesis makes the compounds useful in the treatment of a variety of conditions such as viral diseases, neoplastic diseases, and autoimmune diseases that are responsive to such changes in the immune response.
The mouse macrophage cell line Raw 264.7 is used to assess the ability of compounds to inhibit tumor necrosis factor-α (TNF-α) production upon stimulation by lipopolysaccharide (LPS).
Raw cells (ATCC) are harvested by gentle scraping and then counted. The cell suspension is brought to 3×10^5 cells/mL in RPMI with 10% fetal bovine serum (FBS). […]
The compounds are solubilized in dimethyl sulfoxide (DMSO). […] LPS (Lipopolysaccaride from Salmonella typhimurium, Sigma-Aldrich) is diluted with colorless RPMI to the EC70 concentration as measured by a dose response assay. […]
Following the incubation the supernatant is removed with a pipet. TNF-α concentration is determined by ELISA using a mouse TNF-α kit (from Biosource International, Camarillo, Calif.). […]

`CC(C)Cn1cnc2c(N)nc3ccc(-c4cccnc4)cc3c21` [Example 14, 1-Isobutyl-8-(pyridin-3-yl)-1H-imidazo[4,5-c]quinolin-4-amine]: the melting point is 244 to 246 °C. Besides, the “modulate cytokine biosynthesis by inhibiting production of tumor necrosis factor α (TNF-α)” value in data set [1] is listed as “inhibiting production of tumor necrosis factor α (TNF-α)”.

In the case of `CC(C)Cn1cnc2c(N)nc3ccc(-n4cccc4)cc3c21` [Example 481, 1-(2-Methylpropyl)-8-(1-pyrrolyl)-1H-imidazo[4,5-c]quinolin-4-amine], the melting point was 227.5 to 231.5 °C. The “modulate cytokine biosynthesis by inhibiting production of tumor necrosis factor α (TNF-α)” value in data set [1] was “inhibiting production of tumor necrosis factor α (TNF-α)”. Compound `CC(C)Cn1cnc2c(N)nc3ccc(-c4ccccc4)cc3c21` [Example 15, 1-Isobutyl-8-phenyl-1H-imidazo[4,5-c]quinolin-4-amine] had a melting point of 203 to 204 °C. For the same compound, the “modulate cytokine biosynthesis by inhibiting production of tumor necrosis factor α (TNF-α)” value in data set [1] is listed as “inhibiting production of tumor necrosis factor α (TNF-α)”. As to `CCOCc1nc2c(N)nc3cc(-c4cccnc4)ccc3c2n1CC1CCN(C(=O)N2CCOCC2)CC1` (hydrate or solvate) [Example 180, 2-Ethoxymethyl-1-{[1-(morpholin-4-ylcarbonyl)piperidin-4-yl]methyl}-7-(pyridin-3-yl)-1H-imidazo[4,5-c]quinolin-4-amine], the melting point fell in the range of 224 to 225 °C.

Regarding `CCCc1nc2c(N)nc3cc(/C=C/c4ccccc4OC)ccc3c2n1CC(C)C` [Example 445, (E)-7-[2-(2-Methoxyphenyl)vinyl]-1-(2-methylpropyl)-2-propyl-1H-imidazo[4,5-c]quinolin-4-amine], the melting point was in the range of 214 to 216 °C.

On to `CCOCc1nc2c(N)nc3cc(-c4cccnc4)ccc3c2n1CC1CCCCN1S(C)(=O)=O` (centres unmarked) [Example 492, 2-Ethoxymethyl-1-{[1-(methanesulfonyl)piperidin-2-yl]methyl}-7-(pyridin-3-yl)-1H-imidazo[4,5-c]quinolin-4-amine], for which the melting point lay in the range of 152 to 154 °C. Consider `CCCCc1nc2c(N)nc3cc(-c4ccc(C(C)(C)C)cc4)ccc3c2n1CC(C)C` [Example 4, 2-Butyl-7-(4-tert-butylphenyl)-1-isobutyl-1H-imidazo[4,5-c]quinolin-4-amine], for which the melting point lay in the range of 219 to 220 °C. Same read-out and setting: with `CCOCc1nc2c(N)nc3cc(-c4cccnc4)ccc3c2n1CCCCNC(=O)C(C)C` [Example 373, N-{4-[4-Amino-2-ethoxymethyl-7-(pyridin-3-yl)-1H-imidazo[4,5-c]quinolin-1-yl]butyl}-2-methylpropanamide] the figure was 200 to 202 °C. On the same count and under the same terms, with `CCOCc1nc2c(N)nc3cc(-c4ccccc4)ccc3c2n1CC1COC(C)(C)O1` (centres unmarked) [Example 161, 1-[(2,2-Dimethyl-1,3-dioxolan-4-yl)methyl]-2-ethoxymethyl-7-phenyl-1H-imidazo[4,5-c]quinolin-4-amine] the figure was 168 to 170 °C; with `CCCOc1cccc(-c2ccc3c(c2)nc(N)c2nc(COCC)n(CC(C)C)c23)c1` [Example 106, 2-Ethoxymethyl-1-(2-methylpropyl)-7-(3-propoxyphenyl)-1H-imidazo[4,5-c]quinolin-4-amine], 140 to 141 °C.

`CCCCCCC1(CCCCCC)c2cc(-c3ccc4c(c3)nc(N)c3nc(COCC)n(CC(C)(C)O)c34)ccc2-c2ccc(-c3ccc4c(c3)nc(N)c3nc(COCC)n(CC(C)(C)O)c34)cc21` [Example 475, 1-(4-Amino-7-{7-[4-amino-2-ethoxymethyl-1-(2-hydroxy-2-methylpropyl)-1H-imidazo[4,5-c]quinolin-7-yl]-9,9-dihexyl-9H-fluoren-2-yl}-2-ethoxymethyl-1H-imidazo[4,5-c]quinolin-1-yl)-2-methylpropan-2-ol] yielded a melting point of 261 to 265 °C.

Usually melting point stands for the temperature of the solid-liquid transition.
